Legend:
[1] = tested on: pigweed; experiment: Test D postemergence; type: in vivo, Amaranthus retroflexus; conditions: Amaranthus retroflexus, post-emergence
Description: (§1) Seeds of plant species selected from bluegrass (annual bluegrass, Poa annua), blackgrass (Alopecurus myosuroides), canarygrass (littleseed canarygrass, Phalaris minor), chickweed (common chickweed, Stellaria media), galium (catchweed bedstraw, Galium aparine), bromegrass, downy (downy bromegrass, Bromus tectorum), field poppy (Papaver rhoeas), field violet (Viola arvensis), green foxtail (Setaria viridis), deadnettle (henbit deadnettle, Lamium amplexicaule), Italian ryegrass (Lolium multiflorum), kochia (Kochia scoparia), lambsquarters (Chenopodium album), oilseed rape (Brassica napus), pigweed (Amaranthus retroflexus), chamomile (scentless chamomile, Matricaria inodora), Russian thistle (Salsola kali), speedwell (bird's-eye speedwell, Veronica persica), spring barley (Hordeum vulgare), spring wheat (Triticum aestivum), wild buckwheat (Polygonum convolvulus), wild mustard (Sinapis arvensis), wild oat (Avena fatua), wild radish (Raphanus raphanistrum), windgrass (Apera spica-venti), winter barley (Hordeum vulgare), and winter wheat (Triticum aestivum) were planted into a silt loam soil and treated preemergence with test chemicals formulated in a non-phytotoxic solvent mixture which included a surfactant.
(§2) At the same time, these species were planted in pots containing Redi-Earth® planting medium (Scotts Company, 14111 Scottslawn Road, Marysville, Ohio 43041) comprising spaghnum peat moss, vermiculite, wetting agent and starter nutrients and treated with postemergence applications of the test chemicals formulated in the same manner. Plants ranged in height from 2 to 18 cm (1- to 4-leaf stage). Treated plants and controls were maintained in a controlled growth environment for 7 to 21 days after which time all species were compared to controls and visually evaluated. Plant response ratings, summarized in Table D, are based on a scale of 0 to 100 where 0 is no effect and 100 is complete control. A dash (-) response means no test result.

[2] = tested on: wild buckwheat; experiment: Test D preemergence; type: in vivo, Polygonum convolvulus; conditions: Fallopia convolvulus, pre-emergence
In short: (§3)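 Species were sown in silt loam for preemergence treatment, or grown in peat-based medium to the 1–4-leaf stage (2–18 cm) for postemergence sprays. Test chemicals were formulated in a non-phytotoxic solvent mixture with surfactant. After 7–21 days in a controlled environment, plants were rated visually against controls on a 0 (no effect) to 100 (complete control) scale.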

[3] = tested on: kochia; experiment: Test D preemergence; type: in vivo, Kochia scoparia; conditions: Bassia scoparia, pre-emergence
In short: as §3

[4] = tested on: lambsquarters; experiment: Test D postemergence; type: in vivo, Chenopodium album; conditions: Chenopodium album, post-emergence
Description: as §1, §2

[5] = tested on: wild oat; experiment: Test D preemergence; type: in vivo, Avena fatua; conditions: Avena fatua, pre-emergence
Description: as §1, §2

[6] = tested on: pigweed; experiment: Test D preemergence; type: in vivo, Amaranthus retroflexus; conditions: Amaranthus retroflexus, pre-emergence
Description: as §1, §2

[7] = tested on: chickweed; experiment: Test D postemergence; type: in vivo, Stellaria media; conditions: Stellaria media, post-emergence
Description: as §1, §2

[8] = tested on: field violet; experiment: Test D preemergence; type: in vivo, Viola arvensis; conditions: Viola arvensis, pre-emergence
In short: as §3

[9] = tested on: chamomile; experiment: Test D postemergence; type: in vivo, Matricaria inodora; conditions: Tripleurospermum inodorum, post-emergence
In short: as §3

[10] = tested on: lambsquarters; experiment: Test D preemergence; type: in vivo, Chenopodium album; conditions: Chenopodium album, pre-emergence
In short: as §3

[11] = tested on: speedwell; experiment: Test D postemergence; type: in vivo, Veronica persica; conditions: Veronica persica, post-emergence
In short: as §3

Fc1cccc(Oc2ncc(Cl)cn2)c1-n1cc(C(F)F)nn1 [Compound 141, 5-chloro-2-[2-[4-(difluoromethyl)-1H-1,2,3-triazol-1-yl]-3-fluorophenoxy]pyrimidine]
70%: pest or weed control at 16 g/ha ([7]; 16 g ai/ha, scale 0-100, read-out: Plant response rating, Chickweed)
95%: pest or weed control at 31 g/ha ([4]; 31 g ai/ha, scale 0 to 100 (0 no effect, 100 complete control), read-out: Plant response rating, Lambsquarters) | pest or weed control at 62 g/ha ([4]; 62 g ai/ha, scale 0 to 100 (0 no effect, 100 complete control), read-out: Plant response rating, Lambsquarters) | pest or weed control at 62 g/ha ([7]; 62 g ai/ha, scale 0 to 100 (0 no effect, 100 complete control), read-out: Plant response rating, Chickweed)
100%: pest or weed control at 62 g/ha ([1]; 62 g ai/ha, scale 0 to 100 (0 no effect, 100 complete control), read-out: Plant response rating, Pigweed) | pest or weed control at 125 g/ha ([1]; 125 g ai/ha, scale 0 to 100 (0 no effect, 100 complete control), read-out: Plant response rating, Pigweed) | pest or weed control at 16 g/ha ([2]; 16 g ai/ha, scale 0 (no effect) to 100 (complete control), read-out: Plant response rating, Buckwheat, Wild) | pest or weed control at 31 g/ha ([2]; 31 g ai/ha, scale 0-100, read-out: Plant response rating, Buckwheat, Wild) | pest or weed control at 62 g/ha ([2]; 62 g ai/ha, scale 0-100, read-out: Plant response rating, Buckwheat, Wild) | pest or weed control at 125 g/ha ([2]; 125 g ai/ha, scale 0-100, read-out: Plant response rating, Buckwheat, Wild) | pest or weed control at 31 g/ha ([3]; 31 g ai/ha, scale 0-100, read-out: Plant response rating, Kochia) | pest or weed control at 62 g/ha ([3]; 62 g ai/ha, scale 0-100, read-out: Plant response rating, Kochia) | pest or weed control at 125 g/ha ([3]; 125 g ai/ha, scale 0-100, read-out: Plant response rating, Kochia) | pest or weed control at 31 g/ha ([6]; 31 g ai/ha, scale 0 (no effect) to 100 (complete control), read-out: Plant response rating, Pigweed) | pest or weed control at 62 g/ha ([6]; 62 g ai/ha, scale 0-100, read-out: Plant response rating, Pigweed) | pest or weed control at 125 g/ha ([6]; 125 g ai/ha, scale 0-100, read-out: Plant response rating, Pigweed) | pest or weed control at 125 g/ha ([7]; 125 g ai/ha, scale 0 to 100 (0 no effect, 100 complete control), read-out: Plant response rating, Chickweed) | pest or weed control at 16 g/ha ([8]; 16 g ai/ha, scale 0 (no effect) to 100 (complete control), read-out: Plant response rating, Field Violet) | pest or weed control at 31 g/ha ([8]; 31 g ai/ha, scale 0-100, read-out: Plant response rating, Field Violet) | pest or weed control at 62 g/ha ([8]; 62 g ai/ha, scale 0-100, read-out: Plant response rating, Field Violet) | pest or weed control at 125 g/ha ([8]; 125 g ai/ha, scale 0-100, read-out: Plant response rating, Field Violet) | pest or weed control at 16 g/ha ([10]; 16 g ai/ha, scale 0 (no effect) to 100 (complete control), read-out: Plant response rating, Lambsquarters) | pest or weed control at 31 g/ha ([10]; 31 g ai/ha, scale 0-100, read-out: Plant response rating, Lambsquarters) | pest or weed control at 62 g/ha ([10]; 62 g ai/ha, scale 0-100, read-out: Plant response rating, Lambsquarters) | pest or weed control at 125 g/ha ([10]; 125 g ai/ha, scale 0-100, read-out: Plant response rating, Lambsquarters) | pest or weed control at 16 g/ha ([11]; 16 g ai/ha, scale 0-100, read-out: Plant response rating, Speedwell) | pest or weed control at 31 g/ha ([11]; 31 g ai/ha, scale 0 to 100 (0 no effect, 100 complete control), read-out: Plant response rating, Speedwell) | pest or weed control at 62 g/ha ([11]; 62 g ai/ha, scale 0 to 100 (0 no effect, 100 complete control), read-out: Plant response rating, Speedwell) | pest or weed control at 125 g/ha ([11]; 125 g ai/ha, scale 0 to 100 (0 no effect, 100 complete control), read-out: Plant response rating, Speedwell)
15%: pest or weed control at 62 g/ha ([9]; 62 g ai/ha, scale 0 to 100 (0 no effect, 100 complete control), read-out: Plant response rating, Chamomile)
80%: pest or weed control at 16 g/ha ([4]; 16 g ai/ha, scale 0-100, read-out: Plant response rating, Lambsquarters) | pest or weed control at 62 g/ha ([5]; 62 g ai/ha, scale 0-100, read-out: Plant response rating, Oat, Wild)
30%: pest or weed control at 16 g/ha ([5]; 16 g ai/ha, scale 0 (no effect) to 100 (complete control), read-out: Plant response rating, Oat, Wild)
20%: pest or weed control at 31 g/ha ([9]; 31 g ai/ha, scale 0 to 100 (0 no effect, 100 complete control), read-out: Plant response rating, Chamomile) | pest or weed control at 125 g/ha ([9]; 125 g ai/ha, scale 0 to 100 (0 no effect, 100 complete control), read-out: Plant response rating, Chamomile)
98%: pest or weed control at 16 g/ha ([1]; 16 g ai/ha, scale 0-100, read-out: Plant response rating, Pigweed) | pest or weed control at 31 g/ha ([1]; 31 g ai/ha, scale 0 to 100 (0 no effect, 100 complete control), read-out: Plant response rating, Pigweed) | pest or weed control at 125 g/ha ([4]; 125 g ai/ha, scale 0 to 100 (0 no effect, 100 complete control), read-out: Plant response rating, Lambsquarters) | pest or weed control at 125 g/ha ([5]; 125 g ai/ha, scale 0-100, read-out: Plant response rating, Oat, Wild) | pest or weed control at 16 g/ha ([6]; 16 g ai/ha, scale 0 (no effect) to 100 (complete control), read-out: Plant response rating, Pigweed)
85%: pest or weed control at 16 g/ha ([3]; 16 g ai/ha, scale 0 (no effect) to 100 (complete control), read-out: Plant response rating, Kochia)
90%: pest or weed control at 31 g/ha ([7]; 31 g ai/ha, scale 0 to 100 (0 no effect, 100 complete control), read-out: Plant response rating, Chickweed)
65%: pest or weed control at 31 g/ha ([5]; 31 g ai/ha, scale 0-100, read-out: Plant response rating, Oat, Wild)
10%: pest or weed control at 16 g/ha ([9]; 16 g ai/ha, scale 0-100, read-out: Plant response rating, Chamomile)

Reference: patent publication US9695155B2, “Herbicidal substituted pyrimidinyloxy benzene compounds” (E. I. DU PONT DE NEMOURS AND COMPANY, priority 2013, dated 2017)
